What was measured:
Format in all cases: in vivo
[1] = system: Sunflower; experiment: Test C preemergence; settings: scale 0 to 100
[2] = system: smallflower flatsedge (Cyperus difformis); experiment: Test C flooded paddy test; settings: for Flatsedge plant response rating: Flooded Paddy, scale 0 to 100, 0 no effect, 100 complete control; for Plant response rating, Flatsedge: scale 0 to 100 (0 no effect, 100 complete control)
Method in brief: (§1)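 Visual injury score, 0 (no effect) to 100 (complete control), relative to controls. Paddy plants treated at 2-leaf stage; greenhouse hold 12–14 d before rating.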

[3] = system: duck salad (Heteranthera limosa); experiment: Test C flooded paddy test; settings: for Ducksalad plant response rating: Flooded Paddy, scale 0 to 100, 0 no effect, 100 complete control; for Plant response rating, Ducksalad: scale 0 to 100 (0 no effect, 100 complete control)
Method in brief: as §1

[4] = system: rice (Oryza saliva); experiment: Test C flooded paddy test; settings: for Rice plant response rating: Flooded Paddy, scale 0 to 100, 0 no effect, 100 complete control; for Plant response rating, Rice: scale 0 to 100 (0 no effect, 100 complete control)
Method in brief: as §1

[5] = system: barnyardgrass (Echinochloa crus-galli); experiment: Test C flooded paddy test; settings: for Barnyardgrass plant response rating: Flooded Paddy, scale 0 to 100, 0 no effect, 100 complete control; for Plant response rating, Barnyardgrass: scale 0 to 100 (0 no effect, 100 complete control)
Method in brief: as §1

[6] = system: barnyardgrass (Echinochloa crus-galli); experiment: Test B preemergence
Method in brief: (§2)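 Post-treatment, species sat 13–15 days under greenhouse conditions before visual scoring against controls, 0 (no effect) through 100 (complete control). Application preemergence to sown seeds or postemergence at 1- to 4-leaf stage, using a non-phytotoxic solvent/surfactant formulation.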

[7] = system: velvetleaf (Abutilon theophrasti); experiment: Test B preemergence
Method in brief: as §2

[8] = system: woolly cupgrass (Eriochloa villosa); experiment: Test C preemergence
Method in brief: (§3)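 Test chemicals, formulated in a non-phytotoxic solvent mixture with surfactant, were applied preemergence to planted seeds or postemergence to plants 2 to 18 cm tall (1- to 4-leaf stage). After 12 to 14 days in a greenhouse, injury was visually rated against untreated controls on a 0–100 scale.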

[9] = system: giant foxtail (Setaria faberii); experiment: Test C preemergence
Method in brief: as §3

[10] = system: yellow nutsedge (Cyperus esculentus); experiment: Test C preemergence
Method in brief: as §3

[11] = system: common ragweed (Ambrosia elatior); experiment: Test C preemergence
Method in brief: as §3

[12] = system: lambsquarters (Chenopodium album); experiment: Test C preemergence
Method in brief: as §3

[13] = system: Nightshade; experiment: Test C preemergence
[14] = system: Surinam grass (Brachiaria decumbens); experiment: Test C preemergence
Method in brief: as §3

[15] = system: corn (Zea mays); experiment: Test C preemergence
Method in brief: as §3

[16] = system: pigweed (Amaranthus retroflexus); experiment: Test C preemergence
Method in brief: as §3

[17] = system: morningglory (Ipomoea hederacea); experiment: Test C preemergence
Method in brief: as §3

[18] = system: johnsongrass (Sorghum halepense); experiment: Test C preemergence
Method in brief: as §3

[19] = flooded paddy test, Rate 62 g/ha
[20] = flooded paddy test, Rate 125 g/ha
[21] = Preemergence, Rate 500 g/ha, scale 0 to 100, 0 no effect, 100 complete control
[22] = preemergence, Rate 125 g/ha, scale of 0 to 100 where 0 is no effect and 100 is complete control, 13 to 15 days
[23] = Rate 125 g/ha, scale 0 to 100, 0 no effect, 100 complete control
[24] = preemergence, Rate 62 g/ha, scale 0 to 100
[25] = preemergence, Rate 500 g/ha, visual evaluation after 12 to 14 days
[26] = preemergence, Rate 250 g/ha, scale 0 to 100, 0 no effect, 100 complete control
[27] = Rate 250 g/ha, scale 0 to 100, 0 no effect, 100 complete control
[28] = flooded paddy test, Rate 250 g/ha
[29] = flooded paddy test, Rate 62 g/ha, visually evaluated after 12 to 14 days, 0 = no effect, 100 = complete control
[30] = preemergence, Rate 31 g/ha, scale 0 to 100

CCC(CC)c1ccn(C2CCN(c3ccc(Cl)c(OC)c3)C2=O)n1 (centres unmarked) [Compound 118]
0: Plant response rating, Sunflower ([1]; Rate 62 g/ha) | Plant response rating, Flatsedge [2, 19] | Plant response rating, Rice [4, 19] | Plant response rating, Rice [4, 20] | Plant response rating, Foxtail, Giant [9, 24] | Plant response rating, Nutsedge [10, 23] | Plant response rating, Nutsedge [10, 24] | Plant response rating (0 to 100), Nutsedge [10, 25] | Plant response rating, Nutsedge [10, 26] | Plant response rating, Surinam grass [14, 24] | Plant response rating, Corn [15, 23] | Plant response rating, Corn [15, 24] | Plant response rating, Morningglory [17, 24] | Plant response rating, Johnsongrass [18, 24]
50: Plant response rating, Barnyardgrass [5, 19] | Plant response rating (0 to 100), Surinam grass [14, 25]
90: Plant response rating, Velvetleaf [7, 21] | Plant response rating, Cupgrass, Woolly [8, 23] | Plant response rating, Morningglory [17, 26]
60: Plant response rating, Ducksalad [3, 20] | Plant response rating, Barnyardgrass [5, 20] | Plant response rating, Ragweed, Common [11, 24]
40: Plant response rating, Cupgrass, Woolly [8, 24] | Plant response rating, Johnsongrass [18, 23]
10: Plant response rating, Surinam grass [14, 23] | Plant response rating, Corn [15, 26]
75: Plant response rating, Pigweed [16, 24]
70: Plant response rating, Johnsongrass [18, 26]
80: Plant response rating, Ragweed, Common [11, 26]
100: Flatsedge plant response rating ([2]; Rate 250 g/ha) | Flatsedge plant response rating ([2]; Rate 500 g/ha) | Plant response rating, Flatsedge [2, 20] | Ducksalad plant response rating ([3]; Rate 250 g/ha) | Ducksalad plant response rating ([3]; Rate 500 g/ha) | Barnyardgrass plant response rating ([5]; Rate 250 g/ha) | Barnyardgrass plant response rating ([5]; Rate 500 g/ha) | Plant response rating, Barnyardgrass [6, 21] | Plant response rating, Barnyardgrass [6, 22] | Plant response rating (0 to 100), Cupgrass, Woolly [8, 25] | Plant response rating, Cupgrass, Woolly [8, 26] | Plant response rating, Foxtail, Giant [9, 23] | Plant response rating (0 to 100), Foxtail, Giant [9, 25] | Plant response rating, Foxtail, Giant [9, 26] | Plant response rating (0 to 100), Ragweed, Common [11, 25] | Plant response rating, Lambsquarters [12, 23] | Plant response rating, Lambsquarters [12, 24] | Plant response rating (0 to 100), Lambsquarters [12, 25] | Plant response rating, Lambsquarters [12, 26] | Plant response rating, Nightshade ([13]; Rate 62 g/ha, scale 0 to 100) | Plant response rating, Nightshade [13, 23] | Plant response rating, Nightshade [13, 27] | Plant response rating, Pigweed [16, 23] | Plant response rating (0 to 100), Pigweed [16, 25] | Plant response rating, Pigweed [16, 26] | Plant response rating (0 to 100), Morningglory [17, 25] | Plant response rating (0 to 100), Johnsongrass [18, 25]
30: Rice plant response rating ([4]; Rate 500 g/ha) | Plant response rating, Surinam grass [14, 26]
35: Plant response rating (0 to 100), Corn [15, 25]
20: Rice plant response rating ([4]; Rate 250 g/ha) | Plant response rating, Velvetleaf [7, 22] | Plant response rating, Morningglory [17, 23]

Cc1cc(C)nc(N2CCC(n3ccc(C(C)(C)C)n3)C2=O)c1 (centres unmarked) [Compound 138]
70: Rice plant response rating ([4]; Rate 500 g/ha)
90: Plant response rating, Flatsedge [2, 20] | Plant response rating (scale 0 to 100), Flatsedge [2, 29] | Plant response rating, Nightshade [13, 27]
80: Plant response rating, Foxtail, Giant [9, 24] | Plant response rating, Morningglory [17, 23] | Plant response rating, Morningglory [17, 26]
100: Flatsedge plant response rating ([2]; Rate 500 g/ha) | Plant response rating, Flatsedge [2, 28] | Ducksalad plant response rating ([3]; Rate 500 g/ha) | Barnyardgrass plant response rating ([5]; Rate 500 g/ha) | Plant response rating, Barnyardgrass [5, 28] | Plant response rating, Barnyardgrass [6, 21] | Plant response rating, Cupgrass, Woolly [8, 26] | Plant response rating, Foxtail, Giant [9, 23] | Plant response rating, Foxtail, Giant [9, 26] | Plant response rating, Lambsquarters [12, 23] | Plant response rating, Lambsquarters [12, 30] | Plant response rating, Lambsquarters [12, 24] | Plant response rating, Lambsquarters [12, 26] | Plant response rating, Surinam grass [14, 26]
0: Plant response rating, Sunflower ([1]; Rate 31 g/ha) | Plant response rating, Sunflower ([1]; Rate 62 g/ha) | Plant response rating (scale 0 to 100), Ducksalad [3, 29] | Plant response rating, Rice [4, 20] | Plant response rating (scale 0 to 100), Rice [4, 29] | Plant response rating (scale 0 to 100), Barnyardgrass [5, 29] | Plant response rating, Barnyardgrass [6, 22] | Plant response rating, Velvetleaf [7, 21] | Plant response rating, Velvetleaf [7, 22] | Plant response rating, Cupgrass, Woolly [8, 30] | Plant response rating, Nutsedge [10, 23] | Plant response rating, Nutsedge [10, 30] | Plant response rating, Nutsedge [10, 24] | Plant response rating, Ragweed, Common [11, 23] | Plant response rating, Ragweed, Common [11, 30] | Plant response rating, Ragweed, Common [11, 24] | Plant response rating, Nightshade ([13]; Rate 31 g/ha, scale 0 to 100) | Plant response rating, Nightshade ([13]; Rate 62 g/ha, scale 0 to 100) | Plant response rating, Surinam grass [14, 23] | Plant response rating, Surinam grass [14, 30] | Plant response rating, Surinam grass [14, 24] | Plant response rating, Corn [15, 23] | Plant response rating, Corn [15, 30] | Plant response rating, Corn [15, 24] | Plant response rating, Pigweed [16, 30] | Plant response rating, Johnsongrass [18, 30] | Plant response rating, Johnsongrass [18, 24]
40: Plant response rating, Barnyardgrass [5, 20] | Plant response rating, Cupgrass, Woolly [8, 24] | Plant response rating, Nutsedge [10, 26] | Plant response rating, Johnsongrass [18, 26]
30: Plant response rating, Rice [4, 28] | Plant response rating, Ragweed, Common [11, 26] | Plant response rating, Corn [15, 26] | Plant response rating, Pigweed [16, 24] | Plant response rating, Morningglory [17, 30] | Plant response rating, Morningglory [17, 24] | Plant response rating, Johnsongrass [18, 23]
60: Plant response rating, Ducksalad [3, 28] | Plant response rating, Cupgrass, Woolly [8, 23]
20: Plant response rating, Ducksalad [3, 20]
50: Plant response rating, Foxtail, Giant [9, 30] | Plant response rating, Nightshade [13, 23] | Plant response rating, Pigweed [16, 23] | Plant response rating, Pigweed [16, 26]

Reference: patent publication US7138361B2, “Herbicidal heterocycles” (E. I. du Pont de Nemours and Company, priority 2000, dated 2006)
